Each structure is given as a SMILES string.

In one series the target is T1, alpha2A (h) (Homo sapiens, UniProt P08913).
T1 construct: expressed in transfected cells; host or cells: CHO cells
T1 sequence (P08913 1-465): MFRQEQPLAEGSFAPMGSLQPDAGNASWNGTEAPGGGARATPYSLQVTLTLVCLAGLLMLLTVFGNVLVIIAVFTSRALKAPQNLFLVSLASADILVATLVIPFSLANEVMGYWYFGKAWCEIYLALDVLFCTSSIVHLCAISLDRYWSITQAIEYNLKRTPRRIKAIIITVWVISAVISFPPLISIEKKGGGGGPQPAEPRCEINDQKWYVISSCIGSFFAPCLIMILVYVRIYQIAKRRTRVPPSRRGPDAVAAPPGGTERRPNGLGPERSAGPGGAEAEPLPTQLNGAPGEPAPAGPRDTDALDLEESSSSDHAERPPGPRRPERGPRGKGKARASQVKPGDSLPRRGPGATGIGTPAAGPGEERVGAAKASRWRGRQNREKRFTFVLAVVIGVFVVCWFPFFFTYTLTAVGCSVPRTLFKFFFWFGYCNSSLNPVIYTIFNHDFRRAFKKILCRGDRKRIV
Put plainly: Radioligand binding alpha2A (h) (antagonist radioligand), [^3H]RX 821002, CHO cells. The procedure: (§1) Methods—Binding Assays: In vitro binding assays were performed using human recombinant receptors expressed in mammalian cell lines. Receptors were expressed in either HEK-293 or CHO cells depending on the target, and assay conditions (radioligand, concentration, nonspecific competitor, temperature, and incubation time) were optimized for each receptor. All assays were conducted in triplicate, and specific binding was quantified by scintillation counting as the detection method for each listed assay.
(§2) Specific binding was expressed as a percentage of control-specific binding, and percent inhibition was calculated using the formula in Ex. 8 above. Half-maximal inhibitory concentrations (IC50) were determined by non-linear regression analysis of the inhibition curves using the Hill equation (see Ex. 8). Inhibition constants (Ki) were calculated using the Cheng-Prusoff equation (see Ex. 8). KD values used in these calculations had been previously established for each receptor under the assay conditions (see Table 6). Data analysis was performed using software developed at Cerep and validated against SigmaPlot 4.0 for Windows.

For a further series, the system named is NMDA. Put plainly: Radioligand binding NMDA (antagonist radioligand), [^3H]CGP 39653, rat cerebral cortex.
The test system of another series is KV channel. It counts as binding, rat. Conditions: KV channel (antagonist radiolig.).
In another series the target is T2, D1 (h) (Homo sapiens, UniProt P21728).
T2 construct: expressed in transfected cells; host or cells: CHO cells
T2 sequence (P21728 whole entry): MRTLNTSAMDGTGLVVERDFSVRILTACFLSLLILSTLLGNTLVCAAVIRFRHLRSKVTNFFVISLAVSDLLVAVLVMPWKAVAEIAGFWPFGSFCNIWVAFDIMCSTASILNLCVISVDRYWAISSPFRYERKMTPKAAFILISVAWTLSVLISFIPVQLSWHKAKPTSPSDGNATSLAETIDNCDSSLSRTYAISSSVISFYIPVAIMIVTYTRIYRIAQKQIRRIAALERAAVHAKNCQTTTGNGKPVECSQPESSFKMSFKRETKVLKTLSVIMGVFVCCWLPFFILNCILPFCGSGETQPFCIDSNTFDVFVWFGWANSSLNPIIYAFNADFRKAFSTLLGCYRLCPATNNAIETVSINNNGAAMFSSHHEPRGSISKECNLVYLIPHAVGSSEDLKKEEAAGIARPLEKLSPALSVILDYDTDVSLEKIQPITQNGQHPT
Put plainly: Radioligand binding D1 (h) (antagonist radioligand), [^3H]SCH 23390, CHO cells. The procedure:
as §1, §2

The target in another series is T3, GR (h) (Homo sapiens, UniProt P04150).
T3 construct: human endog; endogenous in cells; host or cells: IM-9 cells
T3 sequence (P04150 1-777): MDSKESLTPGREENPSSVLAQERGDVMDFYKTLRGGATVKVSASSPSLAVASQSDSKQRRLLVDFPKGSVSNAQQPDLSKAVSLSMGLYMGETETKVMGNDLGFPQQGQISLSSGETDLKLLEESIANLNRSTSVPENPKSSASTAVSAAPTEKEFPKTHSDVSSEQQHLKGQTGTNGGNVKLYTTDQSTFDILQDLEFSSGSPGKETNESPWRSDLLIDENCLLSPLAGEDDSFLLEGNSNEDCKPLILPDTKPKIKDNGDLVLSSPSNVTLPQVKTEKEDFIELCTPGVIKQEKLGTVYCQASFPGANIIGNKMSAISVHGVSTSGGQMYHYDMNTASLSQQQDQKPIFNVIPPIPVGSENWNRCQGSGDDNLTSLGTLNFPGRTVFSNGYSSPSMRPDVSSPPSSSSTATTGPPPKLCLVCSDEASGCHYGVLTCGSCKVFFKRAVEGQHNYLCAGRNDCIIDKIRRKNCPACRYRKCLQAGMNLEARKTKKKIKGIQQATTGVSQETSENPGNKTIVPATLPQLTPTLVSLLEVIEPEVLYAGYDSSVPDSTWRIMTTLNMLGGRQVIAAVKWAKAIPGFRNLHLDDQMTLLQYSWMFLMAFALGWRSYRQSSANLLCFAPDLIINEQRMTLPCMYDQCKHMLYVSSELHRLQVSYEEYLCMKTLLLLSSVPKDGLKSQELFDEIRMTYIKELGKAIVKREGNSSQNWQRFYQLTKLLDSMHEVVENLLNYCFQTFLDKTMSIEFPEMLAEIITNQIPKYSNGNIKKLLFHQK
The series can be described thus: Radioligand binding GR (h) (agonist radioligand), [^3H]dexamethasone, IM-9 cells.

For a further series, the target named is T4, MAO-A (Rattus norvegicus, UniProt P21396).
T4 construct: from tissue; host or cells: rat cerebral cortex
T4 sequence (P21396 1-526): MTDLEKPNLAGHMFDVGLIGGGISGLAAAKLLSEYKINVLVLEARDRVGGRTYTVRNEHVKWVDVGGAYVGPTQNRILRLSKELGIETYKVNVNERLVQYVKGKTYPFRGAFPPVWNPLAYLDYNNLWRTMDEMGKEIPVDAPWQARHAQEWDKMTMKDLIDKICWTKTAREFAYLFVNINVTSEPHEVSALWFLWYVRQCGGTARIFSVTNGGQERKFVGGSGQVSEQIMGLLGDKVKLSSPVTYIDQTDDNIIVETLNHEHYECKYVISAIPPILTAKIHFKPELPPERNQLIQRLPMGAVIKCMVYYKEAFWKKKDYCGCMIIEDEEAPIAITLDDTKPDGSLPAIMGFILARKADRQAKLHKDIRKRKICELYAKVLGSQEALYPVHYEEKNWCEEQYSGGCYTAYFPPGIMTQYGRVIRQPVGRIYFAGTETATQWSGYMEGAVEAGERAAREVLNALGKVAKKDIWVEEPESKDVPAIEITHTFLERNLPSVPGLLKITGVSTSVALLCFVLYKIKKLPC
The series can be described thus: Radioligand binding MAO-A (antagonist radioligand), [^3H]Ro 41-1049, rat cerebral cortex.

Another series has as its target T5, beta2 (h) (Homo sapiens, UniProt P07550).
T5 construct: expressed in transfected cells; host or cells: CHO cells
Put plainly: Radioligand binding beta2 (h) (antagonist radioligand), [^3H](−)CGP 12177, CHO cells. How it is done: as §1, §2

Another series concerns the target T6, kappa (KOP) (h) (Homo sapiens, UniProt P41145).
T6 construct: expressed in transfected cells; host or cells: RBL cells
The series can be described thus: Radioligand binding kappa (KOP) (h) (agonist radioligand), [^3H]U69593, RBL cells. The note with it: kappa (h) (KOP) (agonist radiolig.).

Series [1] concerns the target T7, Potassium Channel hERG (human) (Homo sapiens, UniProt Q12809).
T7 construct: expressed in transfected cells; host or cells: HEK-293 cells
The series can be described thus: Radioligand binding Potassium Channel hERG (human), [^3H]Dofetilide, HEK-293 cells. The note with it: Potassium Channel hERG(h) ([3H] Dofetilide). How it is done: as §1, §2
In general terms: The hERG channel carries a current that helps repolarise heart muscle cells.

Another series addresses T8, μ (MOP) (h) (Homo sapiens, UniProt P35372).
T8 construct: expressed in transfected cells; host or cells: HEK-293 cells
Put plainly: Radioligand binding μ (MOP) (h) (agonist radioligand), [^3H]DAMGO, HEK-293 cells. How it is done: as §1, §2

T8 sequence (P35372 whole entry): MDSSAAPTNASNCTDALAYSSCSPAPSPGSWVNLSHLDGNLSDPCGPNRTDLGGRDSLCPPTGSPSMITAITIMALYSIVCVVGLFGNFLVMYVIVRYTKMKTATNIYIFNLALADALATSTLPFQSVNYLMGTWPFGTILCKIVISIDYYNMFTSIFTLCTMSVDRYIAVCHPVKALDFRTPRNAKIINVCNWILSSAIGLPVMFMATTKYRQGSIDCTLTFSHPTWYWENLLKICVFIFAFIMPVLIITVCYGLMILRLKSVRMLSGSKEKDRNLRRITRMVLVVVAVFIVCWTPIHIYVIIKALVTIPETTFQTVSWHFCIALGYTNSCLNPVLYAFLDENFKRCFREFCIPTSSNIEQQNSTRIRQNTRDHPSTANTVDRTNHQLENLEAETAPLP
T6 sequence (P41145 whole entry): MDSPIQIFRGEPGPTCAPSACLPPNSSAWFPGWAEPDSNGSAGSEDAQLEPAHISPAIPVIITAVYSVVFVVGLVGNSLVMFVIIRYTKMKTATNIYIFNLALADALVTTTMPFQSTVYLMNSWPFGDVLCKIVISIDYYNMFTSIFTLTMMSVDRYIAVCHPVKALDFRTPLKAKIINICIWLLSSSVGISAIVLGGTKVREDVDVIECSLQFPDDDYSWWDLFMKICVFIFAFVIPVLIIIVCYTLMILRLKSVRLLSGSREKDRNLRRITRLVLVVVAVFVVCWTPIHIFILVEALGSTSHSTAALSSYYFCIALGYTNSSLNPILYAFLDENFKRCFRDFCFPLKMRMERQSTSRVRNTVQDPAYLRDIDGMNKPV
T7 sequence (Q12809 whole entry): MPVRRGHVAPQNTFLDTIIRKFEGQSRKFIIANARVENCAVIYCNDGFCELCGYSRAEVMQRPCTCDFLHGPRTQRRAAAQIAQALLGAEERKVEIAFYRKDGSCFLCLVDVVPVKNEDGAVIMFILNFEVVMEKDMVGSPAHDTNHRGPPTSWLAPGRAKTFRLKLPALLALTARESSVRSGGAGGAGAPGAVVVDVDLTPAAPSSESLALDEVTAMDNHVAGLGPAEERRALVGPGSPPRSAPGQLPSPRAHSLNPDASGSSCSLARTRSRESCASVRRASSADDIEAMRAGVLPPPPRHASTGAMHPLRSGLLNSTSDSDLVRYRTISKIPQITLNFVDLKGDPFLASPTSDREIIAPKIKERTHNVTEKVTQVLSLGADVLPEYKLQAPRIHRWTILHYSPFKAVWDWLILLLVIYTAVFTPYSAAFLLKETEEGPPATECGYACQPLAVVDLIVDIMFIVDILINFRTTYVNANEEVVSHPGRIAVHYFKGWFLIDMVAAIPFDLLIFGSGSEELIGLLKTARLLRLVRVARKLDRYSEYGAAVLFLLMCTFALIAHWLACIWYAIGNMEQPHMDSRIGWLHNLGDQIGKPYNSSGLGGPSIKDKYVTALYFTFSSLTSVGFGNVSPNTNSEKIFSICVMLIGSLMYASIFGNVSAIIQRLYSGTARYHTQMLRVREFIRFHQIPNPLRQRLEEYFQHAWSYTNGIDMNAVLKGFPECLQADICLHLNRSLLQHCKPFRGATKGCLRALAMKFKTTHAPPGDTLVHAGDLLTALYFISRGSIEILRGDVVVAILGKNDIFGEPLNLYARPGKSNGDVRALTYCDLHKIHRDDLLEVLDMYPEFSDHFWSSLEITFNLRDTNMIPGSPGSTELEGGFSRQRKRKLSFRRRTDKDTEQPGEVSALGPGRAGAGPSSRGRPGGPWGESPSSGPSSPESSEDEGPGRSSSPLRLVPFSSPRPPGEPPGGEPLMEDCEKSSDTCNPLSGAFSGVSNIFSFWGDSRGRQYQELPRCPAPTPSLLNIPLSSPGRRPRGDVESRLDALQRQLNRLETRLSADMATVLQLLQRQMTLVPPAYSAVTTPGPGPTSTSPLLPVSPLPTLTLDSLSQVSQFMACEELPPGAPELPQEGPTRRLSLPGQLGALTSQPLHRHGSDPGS
T5 sequence (P07550 whole entry): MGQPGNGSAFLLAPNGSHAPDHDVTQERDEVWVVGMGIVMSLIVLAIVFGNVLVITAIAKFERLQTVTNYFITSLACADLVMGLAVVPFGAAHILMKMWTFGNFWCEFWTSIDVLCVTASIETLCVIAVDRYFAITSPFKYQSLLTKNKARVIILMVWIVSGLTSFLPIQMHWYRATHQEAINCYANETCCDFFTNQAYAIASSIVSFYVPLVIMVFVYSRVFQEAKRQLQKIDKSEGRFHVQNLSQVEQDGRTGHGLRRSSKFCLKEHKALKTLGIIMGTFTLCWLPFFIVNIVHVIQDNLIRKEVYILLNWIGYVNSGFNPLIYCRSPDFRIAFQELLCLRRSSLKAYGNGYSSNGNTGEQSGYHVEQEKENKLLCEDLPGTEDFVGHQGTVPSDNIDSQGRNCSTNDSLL

With `COCc1cc(CCN)c(O)cc1CC(C)C` [2CiBu-2OH-5MM, 2-(2-aminoethyl)-5-isobutyl-4-(methoxymethyl)phenol], the “Mean Percent Inhibition of Control Specific Binding” value (shortened to “Mean Percent Inhibition”) is recorded as 79.4% on alpha2A (h); −24.3% with NMDA; 12.7% in the series with KV channel; 4.0% at D1 (h); −3.1% on GR (h); 7.0% on MAO-A. Besides, the “Mean Percent Inhibition” value on beta2 (h) was found to be 42.1%; on kappa (KOP) (h), 28.2%; in series [1], 9.7%; at μ (MOP) (h) it was 24.4%.

Consider `COCCc1cc(CCN)c(OC)cc1Br` [Compound 2CB-5ME, reference compound], for which the “Mean Percent Inhibition” value is 73.0% on alpha2A (h); 3.5% in the series with NMDA; −4.3% in the series with KV channel; 28.1% on D1 (h); −0.5% on GR (h); 5.4% at MAO-A. The “Mean Percent Inhibition” value on beta2 (h) was 31.8%; on kappa (KOP) (h), 11.2%; in series [1], 8.5%; on μ (MOP) (h), 28.6%.

For `COCc1cc(CCN)c(OC)cc1Br` [Compound 2CB-5MM, 2-(4-bromo-2-methoxy-5-(methoxymethyl)phenyl)ethan-1-amine], the “Mean Percent Inhibition” value at alpha2A (h) is 80.2%; in the series with NMDA it was 4.7%; in the series on KV channel, 0.7%; at D1 (h) it was 21.1%; on GR (h) it was −7.2%; at MAO-A it was 9.3%. For the same molecule, the “Mean Percent Inhibition” value was 18.8% at beta2 (h), 11.4% at kappa (KOP) (h), 13.9% in [1] and 31.1% at μ (MOP) (h).

On to `COCc1cc(CCN)c(OC)cc1CC(C)C` [Compound 2CiBu-5MM, 2-[4-isobutyl-2-methoxy-5-(methoxymethyl)phenyl]ethanamine], for which the “Mean Percent Inhibition” value on alpha2A (h) was 88.5%; with NMDA it was 12.0%; in the series with KV channel, −4.2%; on D1 (h) it was −1.4%; at GR (h), −3.9%; at MAO-A, 4.1%. The “Mean Percent Inhibition” value at beta2 (h) amounted to 38.3%; on kappa (KOP) (h) it was 29.8%; in series [1] it was 4.4%; on μ (MOP) (h) it was 31.5%.

The values are drawn from patent US12692221B2 (priority 2024, dated 2026).
